Laboratory results: patent publication US8796301B2, “Therapeutic or prophylactic agent for dyskinesia” (Toray Industries, Inc., priority 2007, dated 2014)

Legend:
[1] = tested on: L-DOPA-induced dyskinesia in a rat model of Parkinson's disease; assay: L-DOPA-induced dyskinesia in a rat model of Parkinson's disease (6-hydroxydopamine lesion), dyskinesia score; assay type: in vivo
dyskinesia = settings: WO00/003715; cited from earlier work

| Structure (SMILES) | effect on L-DOPA-induced dyskinesia (dyskinesia score vs control score) ([1]; 10 mg/kg subcutaneous, with L-DOPA 20 mg/kg oral, FIG. 2, FIG. 3, FIG. 4) | effect on L-DOPA-induced dyskinesia (dyskinesia score vs control score) ([1]; 30 mg/kg subcutaneous, with L-DOPA 20 mg/kg oral, FIG. 4) | effect on dyskinesia (dyskinesia) | effect on L-DOPA-induced dyskinesia (dyskinesia score vs control score) ([1]; 10 μg/kg subcutaneous, simultaneously with L-DOPA 20 mg/kg oral, FIG. 1) |
| --- | --- | --- | --- | --- |
| COC(=O)/C=C/C(=O)N[C@@H]1CC[C@@]2(O)[C@H]3Cc4ccc(O)c5c4[C@@]2(CCN3CC2CC2)[C@H]1O5 [β-funaltrexamine] | did not influence L-DOPA-induced dyskinesia at all | did not influence L-DOPA-induced dyskinesia at all | suppresses dyskinesia | – |
| CN(C(=O)/C=C/c1ccoc1)[C@@H]1CC[C@@]2(O)[C@H]3Cc4ccc(O)c5c4[C@@]2(CCN3CC2CC2)[C@H]1O5.Cl [Compound 1, (−)-17-(cyclopropylmethyl)-3,14β-dihydroxy-4,5α-epoxy-6β-[N-methyl-trans-3-(3-furyl)acrylamido]morphinan hydrochloride] | – | – | – | significantly suppressed dyskinesia |
